Converted amounts (≈) assume the structure as drawn. “And” between values parts separate entries of the source, which are not always exact repeats. Equal values may be shown once. Read-outs that look alike come from different tables or passages of the source.
Key:
peritoneal macrophages = assay: Toxicity to peritoneal macrophages (Trypan Blue count); format: cell-based, BALB/C mouse
[1] = system: axenic amastigotes of L. amazonensis (strain MHOM/BR/76/LTB-012)
L. amazonensis Lma CL1 = assay: Activity against macrophages infected with Leishmania amastigotes
Method: (§3) A cloned line of Leishmania amazonensis(strain MHOM/BR/76/LTB-012) was used in all experiments. Axenically grown amastigote forms of L. amazonensis were maintained by weekly subpassages in MAA/20 medium (Sereno and Lemesre, Antimicrobial Agents and Chemotherapy 41, 972-976 (1997)) at 32±1° C. in 25 cm^2 tissue culture flasks. L. peruviana (strain MHOM/PE/LCA08) and L. braziliensis (strainMHOM/PE/PER006) were maintained in the promastigote stage in a biphasic medium (blood agar with 0.89% NaCl, pH 7.4) at 24° C., with sub-passage every 3 to 4 days. Promastigotes (5×10^6 parasites) were then transferred to 25 cm2 tissue culture flasks containing 5 ml of M199 medium supplemented with 10% foetal bovine serum (FBS), pH 7.4. After 4 days, exponential phase promastigotes were centrifuged for 10 minutes at 1500 g and 4° C. The supernatant was discarded and replaced by fresh M199 medium supplemented with 20% FBS, pH 5.5. Axenic amastigotes transformation was then induced by increasing the temperature to 34° C. and incubating for 96 h (Teixeira et al., Parasitology Research 88, 963-968 (2002)).
(§4) Extracted cells were immediately deposited on sterile 4×4 mm cover glasses and placed in each well of a 96-well plate. Plates were incubated for 24 h at 37° C., 5% CO2 to allow cell adhesion (Castillo et al, Journal of Ethnopharmacology 112, 410-414 (2007)). Pre-warmed complete M199 medium was used twice to remove non-adherent cells. A neutral red method (Fautz et al., Mutation Research 253, 173-179 (1991)) was employed to determine cell concentration. Approximately 7×10^4 viable cells were deposited in each well for adhesion.
(§5) Infection of macrophages by amastigotes was determined as follows. […] Twelve hours after infection, a solution of the compounds to be tested was added to the cultures at various concentrations and maintained at 37° C. in 5% CO2 for a further forty-eight hours more. The plates were fixed with methanol and stained with 10% Giemsa stain. The percentage of infected macrophages was determined microscopically at 100 times magnification. The number of intracellular amastigotes was determined in 300 cells. Following Delorenzi et al. Antimicrobial Agents and Chemotherapy, 45, 1349-1354 (2001)) the percentage of infection rate (% IR) of each culture was calculated as follows: % IR=100−(infection rate of the treated culture/infection rate of the untreated culture)×100.
(§6) All experiments were performed in triplicate. ANOVA was used to test for statistical significance of differences (Epi-Info, Statview student program). The total parasite burden was calculated as a mean number of amastigotes per cells multiplied by the number of infected macrophages.

L. braziliensis PER006 = assay: as above; conditions: read-out: IC50 L. braziliensis PER006, 48 h
L. peruviana LCA08 = assay: as above; conditions: read-out: IC50 L. peruviana LCA08, 48 h
Method: as §3, §4, §5, §6

3T3 cells = assay: Cell growth inhibition bioassay (sulforhodamine B); format: cell-based, mouse; conditions: Mus musculus, NIH3T3; 48 h, SRB; read-out: GI50 in indicated cell line: 3T3
Summary of the method: (§1)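 Cells were exposed to compound alongside matched solvent controls, then stained with sulforhodamine B. Percent growth inhibition was calculated from dye absorbance against the control.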

DU145 cells = assay: Cell growth inhibition bioassay (sulforhodamine B); format: cell-based, human; conditions: Homo sapiens, DU-145; 48 h, SRB; read-out: GI50 in indicated cell line: DU145
Summary of the method: (§2)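 SRB colorimetric read-out; % growth inhibition vs solvent control. Human lines: MCF-7 (breast adenocarcinoma), DU145 (prostate carcinoma), PC3 (prostate adenocarcinoma), H460 (large cell lung cancer).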

H460 cells = assay: Cell growth inhibition bioassay (sulforhodamine B); format: cell-based, human; conditions: Homo sapiens, NCI-H460; 48 h, SRB; read-out: GI50 in indicated cell line: H460
Summary of the method: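 Growth inhibition was measured colorimetrically with sulforhodamine B staining and expressed as percent inhibition relative to solvent-treated controls. Cell lines were human: MCF-7 breast adenocarcinoma, DU145 and PC3 prostate carcinoma/adenocarcinoma, H460 large cell lung cancer.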

HT-29 cells = assay: Cell growth inhibition bioassay (sulforhodamine B); format: cell-based, human; conditions: Homo sapiens, HT-29; 48 h, SRB; read-out: GI50 in indicated cell line: HT-29
Summary of the method: as §1

K562 cells = assay: Cell growth inhibition bioassay (sulforhodamine B); format: cell-based, human; conditions: Homo sapiens, K562; 48 h, SRB; read-out: GI50 in indicated cell line: K562
Summary of the method: as §1

M-14 cells = assay: Cell growth inhibition bioassay (sulforhodamine B); format: cell-based, human; conditions: Homo sapiens, M14; 48 h, SRB; read-out: GI50 in indicated cell line: M-14
Summary of the method: as §1

MCF-7 cells = assay: Cell growth inhibition bioassay (sulforhodamine B); format: cell-based, human; conditions: Homo sapiens, MCF7; 48 h, SRB; read-out: GI50 in indicated cell line: MCF-7
Summary of the method: as §2

PC3 cells = assay: Cell growth inhibition bioassay (sulforhodamine B); format: cell-based; conditions: Homo sapiens, PC-3; 48 h, SRB; read-out: GI50 in indicated cell line: PC3
Method: The cytotoxicity of compounds was assayed as follows. […] Appropriate solvent controls were tested for comparison. The percent inhibition of cell growth relative to the control was evaluated colorimetrically using a sulforhodamine B dye by comparison to the control. The calorimetric procedure followed that published in Skehan et al., J. Nat. Cancer Inst., […], pp. 1107-1112 (1990) and Boyd & Paull, Drug Dev. Res., Vol. 34, pp. 91-109 (1995). […] The cell lines are: 3T3 cells are BALB/3T3 clone A31 embryonic mouse fibroblast cells; H460 cells are human large cell lung cancer cells; DU145 cells are human prostate carcinoma cells; MCF-7 cells are human breast adenocarcinoma cells; M-14 cells are human melanoma cells; HT-29 cells are human colon adenocarcinoma cells; PC3 cells are human prostate adenocarcinoma cells; K562 cells are human chronic myelogenous leukemia cells; and VERO cells are African Green Monkey kidney epithelial cells.

[2] = system: Trypanosoma cruzi (Tulahuen C4); assay: In vitro anti-T. cruzi activity (β-galactosidase CPRG colorimetric assay in VERO monolayer); format: cell-based; conditions: for T. cruzi Inhib. (%) / inhibition at 10 µg/mL: 10 μg/mL of each compound, 120 hours; for inhibition at 10 µg/mL / IC50: Trypanosoma cruzi, TULAHUEN, Vero; for inhibition at 10 µg/mL: 120 h, read-out: T. cruzi Inhib. (%)
[3] = system: axenic amastigotes of L. amazonensis (strain MHOM/BR/76/LTB-012); assay: microbe, parasite or virus in culture; conditions: Leishmania amazonensis, 72 h, read-out: IC50 L. amazonensis
[4] = Cytotoxicity on VERO cells (MTT), anti-T. cruzi study; conditions: African green monkey, VERO cells, IC50 - VERO Cytotoxicity, Table 2
VERO cells = assay: as above; conditions: for IC50: Chlorocebus sabaeus, Vero, read-out: IC50 VERO, Table 3; for IC50 - VERO Cytotoxicity: Table 2
[5] = Table 3, read-out: IC50 T. cruzi
[6] = Table 2, read-out: IC50 - T. cruzi
[7] = Mus musculus, Peritoneal macrophage, 48 h, Table 7, read-out: IC50 Macrophage
[8] = Leishmania amazonensis, Macrophage, 48 h, read-out: IC50 L. amazonensis Lma CL1
[9] = Leishmania braziliensis, Macrophage
[10] = Leishmania peruviana, Macrophage

SMILES | GI50 (3T3 cells) [µM] | GI50 (DU145 cells) [µM] | GI50 (H460 cells) [µM] | GI50 (HT-29 cells) [µM] | GI50 (K562 cells) [µM] | GI50 (M-14 cells) [µM] | GI50 (MCF-7 cells) [µM] | GI50 (PC3 cells) [µM] | T. cruzi Inhib. (%) [2] | inhibition at 10 µg/mL [2] [%] | IC50 [2, 5] [µM] | IC50 [3] [µM] | IC50 [2, 6] [µg/mL] | IC50 (peritoneal macrophages; [7]) [µM] | IC50 [4] [µg/mL] | IC50 (L. amazonensis Lma CL1; [8]) [µM] | IC50 (L. braziliensis PER006; [9]) [µM] | IC50 (L. peruviana LCA08; [10]) [µM] | IC50 (VERO cells) [µM] | other results
C[C@@H]1[C@H](O)[C@@H](C)/C=C/C=C/C=C/C=C/C=C/C=C/C=C/[C@H](O[C@@H]2O[C@H](C)[C@@H](O)[C@H](N)[C@@H]2O)C[C@@H]2O[C@](O)(C[C@@H](O)C[C@@H](O)[C@H](O)CC[C@@H](O)C[C@@H](O)CC(=O)O[C@H]1C)C[C@H](O)[C@H]2C(=O)O [Amphotericin B, reference compound] | – | – | – | – | – | – | – | – | – | – | – | – | – | – | – | – | – | – | – | IC50 (peritoneal macrophages): 5.4 µM; IC50 (peritoneal macrophages; 48 h, Table 7, read-out: IC50 Macrophage): 5.3 µM; IC50 [1]: 0.14 µM; IC50 ([1]; read-out: IC50 L. amazonensis, axenic amastigotes, 72 h, Table 7): 0.1 µM; IC50 ([1]; read-out: L. amazonensis IC50, Table 8b): 0.1 µM; IC50 (L. amazonensis Lma CL1; read-out: IC50 L. amazonensis Lma CL1, infected macrophages, 48 h): 0.4 µM; IC50 (L. braziliensis PER006; infected macrophages): 0.1 µM; IC50 (L. peruviana LCA08; infected macrophages): 0.1 µM
O=c1[nH]cc(F)c(=O)[nH]1 [Compound 5FU, 5-Fluorouracil, reference compound] | < 1.54 | 15.4 | 4.1 | 8.9 | 16.7 | 22.4 | 6.5 | 14.6 | – | – | – | – | – | – | – | – | – | – | – | –
COc1ccc(/C=C/C(=O)c2c(O)cc(OC)cc2OC)cc1 [Compound I-01, (2E)-1-(2-Hydroxy-4,6-dimethoxyphenyl)-3-(4-methoxyphenyl)-2-propen-1-one] | 17.2 | 30.8 | 24.1 | 45.3 | 20.5 | 22.5 | 17.5 | 15.2 | 41.36% | 29 | > 25 | 17.2 | – | – | – | – | – | – | – | –
COc1cc(O)c(C(=O)/C=C/c2ccc3c(c2)OCO3)c(OC)c1 [Compound I-02, (2E)-3-(1,3-Benzodioxol-5-yl)-1-(2-hydroxy-4,6-dimethoxyphenyl)-2-propen-1-one] | 39 | > 190 | > 190 | > 190 | 18.9 | > 190 | 140 | 118 | 11.77% | 22.8 | > 25 | > 300 | – | – | – | – | – | – | – | –
COc1ccc(/C=C/C(=O)c2c(O)cc(O)cc2OC)cc1 [Compound I-05, (E)-1-(2,4-Dihydroxy-6-methoxyphenyl)-3-(4-methoxyphenyl)-2-propen-1-one] | 6.7 | 9 | 14 | 21.6 | 17 | 19.6 | 17.3 | 19.3 | 68.88% and 38.57% | – | > 25 | 10 | 5.98 | 166 | 5 (≈ 16.6 µM) | 14.3 | 7.66 | 23 | – | –
COc1cc(O)cc(O)c1C(=O)/C=C/c1ccc2c(c1)OCO2 [Compound I-06, (2E)-3-(1,3-Benzodioxol-5-yl)-1-(2,4-dihydroxy-6-methoxyphenyl)-2-propen-1-one] | 5.1 | 12.4 | 15.6 | 20.7 | 16.2 | 22.6 | 20.4 | 18.5 | 49.61% and 69.78% | – | 9.4 | 4.1 | 2.97 | 157 | 8 (≈ 25.5 µM) | 16.6 | 8.6 | 19.7 | 25.5 | –
C=CCOc1cc(OC)c(C(=O)/C=C/c2ccc(OC)cc2)c(OCC=C)c1 [Compound I-10, (2E)-1-[2-Methoxy-4,6-bis(2-propenyloxy)phenyl]-3-(4-methoxyphenyl)-2-propen-1-one] | 41 | 21 | 20 | 28.4 | 16.6 | 27.6 | 19.5 | 18.1 | 62.86% | 63.5 | 21.4 | 5.5 | 7.28 | 18.7 | 48 (≈ 126 µM) | – | – | – | 99.9 | IC50 - T. cruzi ([2]; Table 2): 8.14 µg/mL (≈ 21.4 µM); IC50 - VERO Cytotoxicity (VERO cells): 38.00 µg/mL (≈ 99.9 µM)
C=CCOc1cc(OC)c(C(=O)/C=C/c2ccc3c(c2)OCO3)c(OCC=C)c1 [Compound I-19, (2E)-3-(1,3-Benzodioxol-5-yl)-1-[2-methoxy-4,6-bis(2-propenyloxy)phenyl]-2-propen-1-one] | 31.7 | 17.5 | 14.5 | 24.1 | 12.2 | 17.2 | 10.9 | 9.6 | 58.82% | 74.1 | 13.6 | 6.6 | 7.33 | – | 49 (≈ 124 µM) | – | – | – | 73.5 | IC50 - T. cruzi ([2]; Table 2): 5.35 µg/mL (≈ 13.6 µM); IC50 - VERO Cytotoxicity (VERO cells): 29.00 µg/mL (≈ 73.5 µM)
C=CCOc1cc(OC)c(C(=O)/C=C/c2ccccn2)c(OCC=C)c1 [Compound I-27, (2E)-1-[2-Methoxy-4,6-bis(2-propenyloxy)phenyl]-3-(2-pyridinyl)-2-propen-1-one] | – | – | – | – | – | – | – | – | – | 77.2 | 1.9 | 1.1 | 0.67 | 12.5 | 1 (≈ 2.85 µM) | 0.9 | 1.4 | 4 | 2.8 | Reduction of parasite burden (column After 7 weeks, analyzed after 6 weeks treatment) (L. amazonensis; 5 mg/kg/day intralesional, after 6 weeks treatment (footnote d)): 25^d %; Lesion diameter (L. amazonensis; compounds 5 mg/kg/day, Glucantime 33 mg/kg/day, intralesional): 4.1 mm; Reduction of parasite burden After 4 weeks (L. amazonensis; compounds 5 mg/kg/day, Glucantime 33 mg/kg/day, intralesional, after 4 weeks): −4%; IC50 (L. amazonensis Lma CL1; Leishmania amazonensis, Macrophage, read-out: bioactivities (IC50) in macrophage-infected model): 0.9 to 4 µM

Source: US9061984B2 (University of Louisville Research Foundation, Inc., priority 2008, dated 2015)
